Laboratory results: a compilation of properties of binary mixtures (doi:10.1016/j.molliq.2014.09.055)

Experiment: xn = mol fraction of the nth substance listed
Conditions: 101 kPa

CCOS(=O)(=O)[O-].CC[n+]1ccn(C)c1 + CC(=O)O
x2 = 0
Conditions | speed of sound [m/s]
293.15 K | 1693.1
298.15 K | 1680.8
303.15 K | 1668.5

CC(=O)O + CCOS(=O)(=O)[O-].CC[n+]1ccn(C)c1
speed of sound [m/s]
Conditions | 293.15 K | 298.15 K | 303.15 K | 308.15 K | 313.15 K
x1 = 0.0978 | – | – | 1656.4 | 1644.2 | –
x1 = 0.1993 | – | 1651.5 | 1639 | 1626.6 | 1614.3
x1 = 0.308 | 1644.8 | 1632.2 | 1619.5 | 1606.9 | 1594.4
x1 = 0.4031 | 1622.3 | – | 1596.6 | – | –
x1 = 0.4737 | 1603.2 | 1590.2 | 1577.1 | 1564 | 1551.1
x1 = 0.5975 | 1560.5 | 1547.1 | 1533.6 | 1520.1 | –
x1 = 0.701 | 1510.8 | 1497 | 1483.1 | 1469.2 | 1455.5
x1 = 0.8057 | – | – | – | 1394.1 | 1379.8
x1 = 0.8973 | 1339.1 | 1324 | – | 1293.3 | 1278
x1 = 0.9512 | – | 1237.2 | 1221 | 1204.9 | 1188.8
x1 = 1 | 1152.7 | – | 1118.4 | 1101.2 | 1084

CCOS(=O)(=O)[O-].CC[n+]1ccn(C)c1 + CCC(=O)O
x2 = 0
Conditions | speed of sound [m/s]
293.15 K | 1693.1
298.15 K | 1680.8
